The subject of test [1] is FeCl3 -induced Platelet-dependent Arterial Thrombosis. Kind of test: Rat model of FeCl3 -induced platelet-dependent arterial thrombosis. The class given is in vivo. The settings on record: for Incidence of Occlusion: rat. An excerpt: This is a well characterized model of platelet dependent, arterial thrombosis which has been used in the evaluation potential antithrombotic compounds such as direct thrombin inhibitors. Kurz, K. D., Main, B. W., and Sandusky, G. E., Thromb. Res., 60: 269-280 (1990). In this model a platelet-rich, occlusive thrombus is formed in a segment of the rat carotid artery treated locally with a fresh solution of FeCl3 absorbed to a piece of filter paper. The FeCl3 is thought to diffuse into the treated segment of artery and causes de-endothelialization of the affected vessel surface. […] The effect of a test compound on the incidence of occlusive thrombus formation following the application of the FeCl3 is monitored by ultrasonic flowtometry and is used as the primary end point. The use of flowtometry to measure carotid artery blood flow, is a modification of the original procedure in which thermal detection of clot formation was employed. Kurz, K. D., Main, B. W., and Sandusky, G. E., Thromb. Res., 60: 269-280 (1990).
Male Harlan Sprague Dawley rats (420-450 g) were acclimated at least 72 hours prior to use and fasted for 12 hours prior to surgery with free access to water. The animals were prepared, anesthetized with Nembutal followed by the insertion of catheters for blood pressure monitoring, drug and anesthesia delivery. The left carotid artery was isolated by making a midline cervical incision followed by blunt dissection and spreading techniques to separate a 2 cm segment of the vessel from the carotid sheath. A silk suture is inserted under the proximal and distal ends of the isolated vessel to provide clearance for the placement of a ultrasonic flow probe (Transonic) around the proximal end of the vessel. The probe is then secured with a stationary arm.
Following surgery the animals were randomized in either a control (saline) or treatment group with test compound (BzlSO2 -norVal(cyclo)-Gly-Arg-al or N-(BnSO2 -norLeu(cyclo)Gly)-L-argininal)with at least 6 animals per group per dose. The test compound was administered as a single intravenous bolus at the doses outlined in Table 3 after placement of the flow probe and 5 minutes prior to the thrombogenic stimulus. At t=0, a 3 mm diameter piece of filter paper (Whatman #3) soaked with 10 microliters of a 35% solution of fresh FeCl3 (made up in water) was applied the segment of isolated carotid artery distal to the flow probe. Blood pressure, blood flow, heart rate, and respiration were monitored for 60 minutes.
The incidence of occlusion (defined as the attainment of zero blood flow) was recorded as the primary end point.
This allows a direct comparison of the antithrombotic efficacy of BzlSO2 -norVal(cyclo)-Gly-Arg-al and N-(BnSO2 -norLeu(cyclo)-Gly)-L-argininal with other antithrombotic agents which have also been evaluated in this model as described above. Table 6 lists the ED50 values for several well known anticoagulant agents in this model compared to the present compounds.

Test [2] deals with T1, bovine pancreatic trypsin (Bos taurus, UniProt P00760).
T1 sequence (P00760 24-246): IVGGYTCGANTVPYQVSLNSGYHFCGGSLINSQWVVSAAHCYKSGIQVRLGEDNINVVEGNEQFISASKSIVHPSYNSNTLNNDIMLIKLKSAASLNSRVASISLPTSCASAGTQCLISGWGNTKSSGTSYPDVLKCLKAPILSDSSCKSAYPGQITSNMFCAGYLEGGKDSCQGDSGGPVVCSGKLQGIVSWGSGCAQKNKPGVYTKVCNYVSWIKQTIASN
Kind of test: In vitro enzyme assay for specificity: trypsin, IC50. Type of test: biochemical. To be noted: Table 2. The protocol:
Trypsin catalytic activity was determined using the chromogenic substrate, S-2222 (benzoyl-L-isoleucine-L-glutamic acid-(gamma-methyl ester)-L-arginine-p-nitroanilide), which was obtained from Kabi Diagnostica. […] Purified (3×-crystallized; TRL3) bovine pancreatic trypsin was obtained from Worthington Biochemical Corp. The enzyme was reconstituted in deionized water and diluted into HBSA prior to assay in which the final concentration was 0.5 nM.

In another test the test system is citrated human plasma. Kind of test: Anticoagulant effect in human plasma, activated partial thromboplastin time (APTT) assay. The class given is biochemical. As to the method:
(§1) The ex vivo anticoagulant effects of BzlSO2 -norVal (cyclo)-Gly-Arg-al(Example 8) and N-(BnSO2 -norLeu (cyclo)-Gly)-L-argininal (Example 34) were determined by measuring the prolongation of the activated partial thromboplastin time (APTT) over a broad concentration range of the added inhibitor, using pooled normal human and rat plasma.
(§2) Fresh frozen citrated pooled normal human plasma was obtained from George King Biomedical, Overland Park, Kans. Pooled normal rat plasma was prepared from citrated whole blood collected from anesthetized rats using standard procedures. The plasma was flash frozen and stored at -80° C. until use.
(§3) Measurements APTT was made using the Coag-A-Mate RA4 automated coagulometer (General Diagnostics, Organon Technica, Oklahoma City, Okla.) using the Automated APTT reagent (Organon Technica, Durham, N.C.) as the initiator of clotting according to the manufacturers instructions. The assay was conducted by making a series of dilutions of the test compounds in rapidly thawed plasma followed by adding 200 microliters to the wells of the assay carousel.

Another test concerns the target T2, human aPC (Homo sapiens, UniProt P04070).
T2 construct: purchased Hematologic Technologies, Inc
Kind of test: In vitro enzyme assay for specificity: activated protein C, IC50. Type of test: biochemical. The settings on record: Table 3. The protocol:
aPC catalytic activity was determined using the chromogenic substrate, Pefachrome PC (delta-carbobenzloxy-D-lysine -L-prolyl-L-arginine-p-nitroanilide), obtained from Pentapharm Ltd.). […] Purified human aPC was obtained from Hematologic Technologies, Inc. The enzyme was diluted into HBSA prior to assay in which the final concentration was 1.0 nM.

The target of another test is T3, Human rt-PA (Activase®) (Homo sapiens, UniProt P00750).
T3 construct: purchased Genentech Inc. Activase®
Kind of test: In vitro enzyme assay for specificity: recombinant tissue plasminogen activator, IC50. Type of test: biochemical. The settings on record: Table 3.

The test system of another test is citrated rat plasma. Kind of test: Anticoagulant effect in rat plasma, activated partial thromboplastin time (APTT) assay. The class given is biochemical. As to the method: as §1, §2, §3
The next test has as its target human plasmin (Homo sapiens, UniProt P00747). Kind of test: In vitro enzyme assay for specificity: plasmin assay, IC50. The class given is biochemical. To be noted: Table 3. As to the method:
Plasmin catalytic activity was determined using the chromogenic substrate, S-2251 (D-valyl-L-leucyl-L-lysine-p-nitroanilide), which was obtained from Kabi Diagnostica.

Another test addresses human α-thrombin (Homo sapiens, UniProt P00734). Kind of test: In vitro enzyme assay for specificity: Thrombin (fIIa) assay, IC50. Type of test: biochemical. As to the method:
IC50 determinations were conducted where HBSA (50 μL), α-thrombin (50 μl) and inhibitor (50 μl) (covering a broad concentration range), were combined in appropriate wells and incubated for 30 minutes at room temperature prior to the addition of substrate Pefachrome-t-PA (50 μl).

[3] abbreviates: Table 3, read-out: IC50 (nM) thrombin.

Like-named read-outs stand apart in the source and are kept apart here. Bounds are passed on as bounds.

human plasmin, sequence (P00747 97-580 limits assumed): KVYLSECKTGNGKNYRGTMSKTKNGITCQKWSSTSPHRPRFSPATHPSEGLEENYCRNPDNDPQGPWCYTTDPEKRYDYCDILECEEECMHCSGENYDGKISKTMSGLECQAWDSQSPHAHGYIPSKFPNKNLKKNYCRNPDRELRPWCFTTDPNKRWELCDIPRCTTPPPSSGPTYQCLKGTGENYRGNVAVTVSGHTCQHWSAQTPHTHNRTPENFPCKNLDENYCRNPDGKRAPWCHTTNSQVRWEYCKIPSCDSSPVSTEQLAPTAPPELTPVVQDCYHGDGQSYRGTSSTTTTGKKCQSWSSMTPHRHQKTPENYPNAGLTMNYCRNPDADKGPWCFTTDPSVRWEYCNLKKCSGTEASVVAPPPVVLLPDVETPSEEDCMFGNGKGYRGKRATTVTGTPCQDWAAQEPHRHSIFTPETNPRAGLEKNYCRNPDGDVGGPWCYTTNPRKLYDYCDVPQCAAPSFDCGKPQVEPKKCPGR
human plasmin, sequence (P00747 581-810 limits assumed): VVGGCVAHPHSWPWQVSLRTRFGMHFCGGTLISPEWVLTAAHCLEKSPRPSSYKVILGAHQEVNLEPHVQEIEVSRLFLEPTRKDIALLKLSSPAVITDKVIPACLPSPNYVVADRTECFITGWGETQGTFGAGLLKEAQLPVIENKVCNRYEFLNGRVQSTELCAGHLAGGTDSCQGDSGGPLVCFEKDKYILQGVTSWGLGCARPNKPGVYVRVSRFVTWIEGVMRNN
T2 sequence (P04070 43-197 limits assumed): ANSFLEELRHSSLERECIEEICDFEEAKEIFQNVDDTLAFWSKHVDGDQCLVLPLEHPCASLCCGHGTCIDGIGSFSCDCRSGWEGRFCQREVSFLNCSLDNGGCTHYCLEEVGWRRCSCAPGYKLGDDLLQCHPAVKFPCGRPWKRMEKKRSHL
T2 sequence (P04070 212-461 limits assumed): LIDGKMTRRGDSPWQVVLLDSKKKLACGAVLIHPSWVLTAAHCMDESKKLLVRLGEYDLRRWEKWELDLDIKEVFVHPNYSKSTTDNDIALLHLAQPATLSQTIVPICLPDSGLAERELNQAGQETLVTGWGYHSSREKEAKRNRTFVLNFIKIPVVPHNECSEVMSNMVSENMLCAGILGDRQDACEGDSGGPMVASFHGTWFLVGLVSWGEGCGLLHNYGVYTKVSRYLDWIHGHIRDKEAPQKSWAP
T3 sequence (P00750 36-562): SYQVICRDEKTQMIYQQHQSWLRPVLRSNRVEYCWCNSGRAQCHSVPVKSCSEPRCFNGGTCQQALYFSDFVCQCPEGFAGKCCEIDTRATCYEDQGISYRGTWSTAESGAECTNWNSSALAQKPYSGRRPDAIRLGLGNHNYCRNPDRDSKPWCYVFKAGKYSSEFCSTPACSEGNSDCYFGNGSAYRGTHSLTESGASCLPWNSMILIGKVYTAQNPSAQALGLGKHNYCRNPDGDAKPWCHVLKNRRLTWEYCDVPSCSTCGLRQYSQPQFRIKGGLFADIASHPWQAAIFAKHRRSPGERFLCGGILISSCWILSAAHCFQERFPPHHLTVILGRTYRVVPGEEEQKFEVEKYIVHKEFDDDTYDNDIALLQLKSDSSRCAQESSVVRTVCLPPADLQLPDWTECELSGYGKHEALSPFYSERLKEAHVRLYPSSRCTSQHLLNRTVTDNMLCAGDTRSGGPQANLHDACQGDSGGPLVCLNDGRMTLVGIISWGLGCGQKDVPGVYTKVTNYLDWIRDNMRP
Experimental for Human rt-PA (Activase®): The buffer used for all assays was HBSA (10 mM HEPES, pH 7.5, 150 mM sodium chloride, 0.1% bovine serum albumin). […] Following a 30-minute incubation at ambient temperature, 50 microliters of the substrate at the concentrations specified below, was added to the wells yielding a final total volume of 200 microliters. The initial velocity of chromogenic substrate hydrolysis was measured by the change in absorbance at 405nm using a Thermo Max® Kinetic Microplate Reader over a 5 minute period in which less than 5% of the added substrate was utilized.
rt-PA catalytic activity was determined using the substrate, Pefachrome t-PA (CH3SO2-D-hexahydrotyrosine-glycyl-L-arginine-p-nitroanilide, obtained from Pentapharm Ltd.). […] Human rt-PA (Activase®) was obtained from Genentech Inc. The enzyme was reconstituted in deionized water and diluted into HBSA prior to the assay in which the final concentration was 1.0 nM.

In general, IC50 refers to the concentration needed to halve the response being measured. Consider `NC(N)=NCCC[C@@H](C=O)NC(=O)CN1CCCC(NS(=O)(=O)Cc2ccccc2)C1=O` (stereo partly drawn) [Example 8, N-benzylsulfonyl-norVal(cyclo)-Gly-L-argininal], for which the “ED50 for thrombus prevention (dose that prevents complete thrombotic occlusion in 50% of animals tested)” value in test [1] (rat FeCl3 model of arterial thrombosis) stood at 0.75 mg/kg. The “Incidence of Occlusion” value is listed as 6/6 in test [1] (0.3 mg/kg single intravenous bolus 5 minutes prior to FeCl3, n 6, monitored 60 minutes); 2/6 in test [1] (1.0 mg/kg single intravenous bolus 5 minutes prior to FeCl3, n 6, monitored 60 minutes); 1/6 in test [1] (3.0 mg/kg single intravenous bolus 5 minutes prior to FeCl3, n 6, monitored 60 minutes); 0/6 in test [1] (5.0 mg/kg single intravenous bolus 5 minutes prior to FeCl3, n 6, monitored 60 minutes). Besides, the IC50 is 1550 nM in test [2], above 2500 nM at human aPC and above 2500 nM on Human rt-PA (Activase®). In addition, the “concentration which caused a doubling of the control clotting time (APTT)” value with citrated human plasma (citrated human plasma, mean of two independent determinations) was 12.8 µM; in the test with citrated rat plasma (citrated rat plasma, control clotting time 20 sec, mean of two independent determinations), 22.1 µM. Further, the “prolongation of the APTT” value in the test on citrated human plasma (human plasma, broad concentration range of added inhibitor) is reported as “prolonged the APTT in a dose-dependent manner”; in the test with citrated rat plasma (rat plasma, broad concentration range of added inhibitor) it was “prolonged the APTT in a dose-dependent manner”.
As to `NC(N)=NCCC[C@@H](C=O)NC(=O)CN1CCCCC(NS(=O)(=O)CC2CCCCC2)C1=O` (stereo partly drawn) [Example 36(i), N-(cyclohexylmethyl-SO2 -norLeu(cyclo)-Gly)-L-argininal], the IC50 was above 2500 nM at human plasmin; 7.86 nM in test [2]; 4.54 nM at human α-thrombin (Table 2, 30-minute incubation with enzyme before substrate, read-out: IC50 alpha-thrombin).
Turning to `NC(N)=NCCC[C@@H](C=O)NC(=O)CN1CCCCC(NS(=O)(=O)Nc2ccccc2)C1=O` (stereo partly drawn) [Example 36(n), N-(phenylamino-SO2 -norLeu(cyclo)-Gly)-L-argininal], the 50% inhibitory concentration (IC50) against human plasmin was above 2500 nM; at human α-thrombin (setting [3]), 14.2 nM.
In the case of `N=C(N)NCCC[C@@H](C=O)NC(=O)CN1CCCC(NS(=O)(=O)Cc2cccc(C(F)(F)F)c2)C1=O` (stereo partly drawn) [Example 36(p), N-(3-trifluoromethylbenzyl-SO2-norLeu(cyclo)-Gly)-L-argininal], the IC50 against human plasmin is above 2500 nM; against human aPC, above 2500 nM; at Human rt-PA (Activase®) it was above 2500 nM; on human α-thrombin (setting [3]) it was 1.9 nM.
Consider `Cc1ccccc1CS(=O)(=O)NC1CCCN(CC(=O)N[C@H](C=O)CCCNC(=N)N)C1=O` (stereo partly drawn) [Example 36(q), N-(2-methylbenzyl-SO2-norLeu(cyclo)-Gly)-L-argininal], for which, at human α-thrombin (setting [3]), the IC50 was 1.71 nM.
Same read-out and setting: then `Cc1cccc(CS(=O)(=O)NC2CCCCN(CC(=O)N[C@H](C=O)CCCN=C(N)N)C2=O)c1` (stereo partly drawn) [Example 36(r), N-(3-methylbenzyl-SO2-norLeu(cyclo)-Gly)-L-argininal], with 0.93 nM.
With `NC(N)=NCCC[C@@H](C=O)NC(=O)CN1CCCC(N)(Cc2ccccc2)C1=O` (stereo partly drawn) [Example 55, N-[D, L-3-Amino-3-benzyl-2-oxo-1-piperidineacetyl]-L-argininal], the IC50 at human plasmin is above 2500 nM; against human aPC, above 2500 nM; on Human rt-PA (Activase®), above 2500 nM; at human α-thrombin (setting [3]) it was 5.41 nM.
On to `NC(N)=NCCC[C@@H](C=O)NC(=O)CN1CCCCC(N)(Cc2ccccc2)C1=O` (stereo partly drawn) [Example 64, N-[D,.L-3-Amino-3-benzyl-hexahydro-2-oxo-azepine-1-acetyl]-L-argininal], for which the IC50 is above 2500 nM against human plasmin, above 2500 nM against human aPC, above 2500 nM on Human rt-PA (Activase®) and 5.41 nM on human α-thrombin (setting [3]).
With `N=C(N)NCCC[C@@H](C=O)NC(=O)CN1CCC[C@H](NCCc2ccccc2)C1=O` [Example 72(a), N-[(S)-3-N-phenylethylamino-2-oxo-1-piperidineacetyl]-L-argininal], the IC50 at human plasmin is above 2500 nM; at human aPC, above 2500 nM; on Human rt-PA (Activase®), above 2500 nM; on human α-thrombin (setting [3]), 3.09 nM.

For the origin of these results see patent US6034215A, “3-amino-2-oxo-1-piperidnercetic derivatives as enzyme inhibitors” (Corvas International, Inc., priority 1997, dated 2000).
